Experimental data taken from ChEMBL document CHEMBL4261618, “Monodisperse oligoethylene glycols modified Propofol prodrugs” (Bioorg Med Chem Lett, 2018).
In brackets after ≈: the same amount, converted by molar mass.

What was measured:
L929 [1] = test: Cytotoxicity against mouse L929 cells assessed as reduction in cell viability up to 4 mM after 24 hrs by MTT assay; format: cell-based; settings: l929, 24 h
A549 [2] = test: Cytotoxicity against human A549 cells assessed as reduction in cell viability up to 4 mM after 24 hrs by MTT assay; format: cell-based; settings: a549, 24 h
[3] = Solubility of the compound in pH 7.4 PBS buffer by ultraviolet spectroscopic method; format: physicochemical
L929 [4] = test: Cytotoxicity against mouse L929 cells after 24 hrs by MTT assay; format: cell-based; settings: L929, 24 h
[5] = Cytotoxicity against mouse L929 cells assessed as cell viability at 0.05 mM after 24 hrs by MTT assay relative to control; format: cell-based; settings: read-out: Activity
A549 [6] = test: Cytotoxicity against human A549 cells after 24 hrs by MTT assay; format: cell-based; settings: A549, 24 h
[7] = Cytotoxicity against human A549 cells assessed as cell viability at 0.05 mM after 24 hrs by MTT assay relative to control; format: cell-based; settings: read-out: Activity
[8] = Solubility of the compound in pH 7.4 PBS buffer containing 60% methanol by ultraviolet spectroscopic method; format: physicochemical
[9] = Critical micellar concentration of the compound in pyrene/acetone solution ultrasonicated for 30 mins followed by incubation in water bath at 60 degC for 40 mins and subsequent incubation at 40 degC for 12 hrs by fluorescence assay; format: physicochemical; settings: buffer
Rattus norvegicus [10] = test: Toxicity in Sprague-Dawley rat assessed as death at 0.073 mmol/kg, iv for 10 secs; format: organism-based; settings: in vivo, 10 s
[11] = Prodrug activation in Sprague-Dawley rat plasma assessed as propofol release at 4 mg after 24 hrs by HPLC analysis; format: cell-free
[12] = Prodrug activation in Sprague-Dawley rat plasma assessed as propofol release at 4 mg after 5 mins by HPLC analysis; format: cell-free
Rattus norvegicus [13] = test: Anesthetic activity in Sprague-Dawley rat assessed as onset time for loss of righting reflex at 0.073 mmol/kg, iv for 10 secs; format: functional
Rattus norvegicus [14] = test: Anesthetic activity in Sprague-Dawley rat assessed as anesthetic duration time at 0.073 mmol/kg, iv for 10 secs; format: functional
[15] = Prodrug activation in Sprague-Dawley rat plasma assessed as propofol release at 4 mg after 20 mins by HPLC analysis; format: cell-free
[16] = Prodrug activation in Sprague-Dawley rat plasma assessed as propofol release at 4 mg after 1 mins by HPLC analysis; format: cell-free

SMILES | solubility [3] [µg/mL] | EC50 (L929 [4]) [µM] | viability at 24 h, 50 µM [5] [%] | EC50 (A549 [6]) [µM] | viability at 24 h, 50 µM [7] [%] | other results
COCCOCCOCCOCCOCCOCCOCCOCCOCCOCCO | – | – | – | – | – | Activity (L929 [1]): Non-Toxic; Activity (A549 [2]): Non-Toxic
COCCOCCOCCOCCOCCOCCOCC(=O)Oc1c(C(C)C)cccc1C(C)C | 2020 (≈ 3920 µM) | 110 | > 90 | 520 | > 90 | –
COCCOCCOCCO | – | – | – | – | – | Activity (L929 [1]): Non-Toxic; Activity (A549 [2]): Non-Toxic
COCCOCCOCC(=O)Oc1c(C(C)C)cccc1C(C)C | – | 1410 | > 90 | 4150 | > 90 | solubility [8]: 420 µg/mL (≈ 1240 µM)
COCCOCCOCCOCCOCCOCCOCCOC(=O)Oc1c(C(C)C)cccc1C(C)C | 2730 (≈ 5010 µM) | 110 | > 90 | 500 | > 90 | CMC [9]: 1.5 mM
COCCOCCOCCOCCOCCOCCOCCOCOc1c(C(C)C)cccc1C(C)C | 55400 (≈ 104000 µM) | 130 | > 90 | 500 | > 90 | Activity (Rattus norvegicus [10]): Toxic; CMC [9]: 0.6 mM
COCCOCCOC(=O)Oc1c(C(C)C)cccc1C(C)C | – | 4600 | > 90 | > 10000 | > 90 | solubility [8]: 70 µg/mL (≈ 216 µM)
COCCOCCOCCOCCOCCOCCOCCOCCOCCOCCOCOc1c(C(C)C)cccc1C(C)C | > 289000 | 210 | > 90 | 610 | > 90 | Activity (Rattus norvegicus [10]): Toxic; Drug metabolism [11]: Metabolite_Notdetected
COCCOCCOCCOCCOCCOCCOCCOCCOCCOCCOCC(=O)Oc1c(C(C)C)cccc1C(C)C | > 371000 | 490 | > 90 | 600 | > 90 | Drug metabolism [12]: Metabolite_Detected; Time (Rattus norvegicus [13]): 0 s; Time (Rattus norvegicus [14]): 8.5 min; Drug metabolism [11]: Metabolite_Detected
CC(C)c1cccc(C(C)C)c1O [PROPOFOL] | – | 4730 | – | 9550 | – | Time (Rattus norvegicus [13]): 0 s; Time (Rattus norvegicus [14]): 10.3 min
COCCOCCOCCOCCOCCOCCOCCOCCOCCOCCOC(=O)Oc1c(C(C)C)cccc1C(C)C | > 315000 | 420 | > 90 | 400 | > 90 | Time (Rattus norvegicus [13]): 0 s; Time (Rattus norvegicus [14]): 5.6 min; Drug metabolism [15]: Metabolite_Detected
COCCOCCOCOc1c(C(C)C)cccc1C(C)C | – | 4870 | > 90 | > 10000 | > 90 | solubility [8]: 200 µg/mL (≈ 644 µM)
COCCOCCOCCOCCOCCOCCOCCOCC(=O)Oc1c(C(C)C)cccc1C(C)C | > 216000 | 120 | > 90 | 520 | > 90 | Time (Rattus norvegicus [13]): 0 s; Time (Rattus norvegicus [14]): 10.5 min; CMC [9]: 1.3 mM; Drug metabolism [16]: Metabolite_Detected

Further lines, with some results ahead:

solubility [3] [µg/mL] | SMILES | EC50 (L929 [4]) [µM] | viability at 24 h, 50 µM [5] [%] | EC50 (A549 [6]) [µM] | viability at 24 h, 50 µM [7] [%] | other results
1580 (≈ 3700 µM) | COCCOCCOCCOCCOCC(=O)Oc1c(C(C)C)cccc1C(C)C | 440 | > 90 | 630 | > 90 | –
1250 (≈ 2570 µM) | COCCOCCOCCOCCOCCOCCOCOc1c(C(C)C)cccc1C(C)C | 140 | > 90 | 510 | > 90 | –
830 (≈ 1660 µM) | COCCOCCOCCOCCOCCOCCOC(=O)Oc1c(C(C)C)cccc1C(C)C | 510 | > 90 | 730 | > 90 | –
380 (≈ 921 µM) | COCCOCCOCCOCCOC(=O)Oc1c(C(C)C)cccc1C(C)C | 1390 | > 90 | 1360 | > 90 | –
570 (≈ 1430 µM) | COCCOCCOCCOCCOCOc1c(C(C)C)cccc1C(C)C | 900 | > 90 | 1730 | > 90 | –
190 (≈ 516 µM) | COCCOCCOCCOC(=O)Oc1c(C(C)C)cccc1C(C)C | 2290 | > 90 | 2130 | > 90 | –
280 (≈ 790 µM) | COCCOCCOCCOCOc1c(C(C)C)cccc1C(C)C | 1170 | > 90 | > 10000 | > 90 | –
990 (≈ 2590 µM) | COCCOCCOCCOCC(=O)Oc1c(C(C)C)cccc1C(C)C | 650 | > 90 | 740 | > 90 | –
